Reference: ChEMBL document CHEMBL4725273, “Structure-activity relationship study of cytotoxic neolignan derivatives using multivariate analysis and computation-aided drug design” (Bioorg Med Chem Lett, 2020)

What was measured:
[1] = system: B16-F10; experiment: Cytotoxicity against mouse B16-F10 cells; format: functional, cell-based
[2] = system: A2058; experiment: Cytotoxicity against human A2058 cells; format: functional, cell-based
[3] = Cytotoxicity against human T75 cells; format: cell-based
[4] = Selectivity index, ratio for IC50 for human T75 cells to IC50 for human A2058 cells

Row | Compound | IC50 [1] | IC50 [2] | IC50 [3] | Ratio IC50 [4]
1 | CCCOc1c(OC)cc(CCC)cc1Oc1ccc(CCC)cc1OC | 79 µM | 52.2 µM | > 100 µM | >1.9
2 | CCCc1ccc(Oc2cc(CCC)cc(OC)c2OC)c(OC)c1 | > 100 µM | > 100 µM | > 100 µM | –
3 | C=CCc1ccc(Oc2cc(CC=C)cc(OC)c2Oc2ccccc2)c(OC)c1 | > 100 µM | > 100 µM | > 100 µM | –
4 | C=CCc1ccc(Oc2cc(C(=O)C=C)cc(OC)c2OC)c(OC)c1 | > 100 µM | > 100 µM | > 100 µM | –
5 | C=CCc1ccc(Oc2cc(C(=O)C=C)cc(OC)c2O)c(OC)c1 | 82.2 µM | 85.3 µM | > 100 µM | >1.2
6 | C=CCc1ccc(Oc2cc(C(O)C=C)cc(OC)c2O)c(OC)c1 (stereo not given) | > 100 µM | > 100 µM | > 100 µM | –
7 | COc1cc(C=O)ccc1Oc1cc(C=O)cc(OC)c1OC=O | 80.2 µM | 61.4 µM | > 100 µM | >1.6
8 | COc1cc(CC(C)O)ccc1Oc1cc(CC(C)O)cc(OC)c1OCC(C)O (stereo not given) | > 100 µM | > 100 µM | > 100 µM | –
9 | C=CCc1ccc(Oc2cc(C(O)C=C)cc(OC)c2OC)c(OC)c1 (stereo not given) | 90.3 µM | > 100 µM | > 100 µM | –
10 | COc1cc(CC(C)=O)ccc1Oc1cc(CC(C)=O)cc(OC)c1OCC(C)=O | > 100 µM | > 100 µM | > 100 µM | –
11 | COc1cc(CCCO)ccc1Oc1cc(CCCO)cc(OC)c1OCCCO | > 100 µM | > 100 µM | > 100 µM | –
12 | CCCc1ccc(Oc2cc(CCC)cc(OC)c2Oc2ccccc2)c(OC)c1 | > 100 µM | > 100 µM | > 100 µM | –
13 | CCC(O)Oc1c(OC)cc(C(O)CC)cc1Oc1ccc(C(O)CC)cc1OC (stereo not given) | > 100 µM | > 100 µM | > 100 µM | –
14 | CCCS(=O)(=O)Nc1ccc(F)c(C(=O)c2c[nH]c3ncc(-c4ccc(Cl)cc4)cc23)c1F [VEMURAFENIB] | – | 8.7 µM | > 100 µM | >11.5
